Data from patent publication US20260318831A1 (University of Cincinnati, priority 2023, published 2026).

Assay: n-octanol/water partition coefficient by shake-flask ultraviolet spectrophotometry
Format: physicochemical
Details: room temperature, read-out: n-octanol/water partition coefficient (Log P)
Method: The measurements of hydrophilicity. Hydrophilicity was determined by a shake-flask ultraviolet spectrophotometry method to measure the n-octanol/water partition coefficients (Log P). First, 25 mL of n-octanol and 25 mL of water were mixed at room temperature. After 24 h, the standard solutions of the sample (10 μM) were prepared by using the preceding saturated n-octanol phase and water phase solution, respectively. Later, the test solutions were prepared by mixing 10 ml of standard solution in n-octanol and 10 ml of standard solution in water. After shaking, the mixture of test solution was centrifuged for 5 min. The n-octanol phase layer was separated from the water phase layer and the absorbance of the two layers was measured by Agilent Cary 8453 spectrophotometer. Based on the Beer-Lambert law, the concentrations of the sample in the n-octanol phase (Co) and the water phase (Cw) were calculated. Finally, the n-octanol/water partition coefficients (Log P) were further calculated by using the following equation: […]

logP at 10 µM: ~-0.65
SMILES: CN1CCN(c2ccc(/C=C/c3ccc4cc(-c5ccncc5)ccc4[n+]3C)cc2)CC1 [PyQPMe, (E)-1-methyl-2-(4-(4-methylpiperazin-1-yl)styryl)-6-(pyridin-4-yl)quinolin-1-ium]
